Laboratory results: patent US10344060B2 (priority 2013, dated 2019)

Columns and labels:
Assay in all cases: cell-based
[1] = target: hNav1.4 (Homo sapiens, UniProt P35499); assay type: cell-based; conditions: Table 6; for IC50: IonWorks Quattro, read-out: IC50 (μM) Nav1.4; for Nav1.4/Nav1.7: ratio of IonWorks Quattro IC50 values
[2] = target: hNav1.7 (Homo sapiens, UniProt Q15858); conditions: read-out: IC50 (μM) Nav1.7
[3] = target: hNav1.3 (Homo sapiens, UniProt Q9NY46); conditions: IonWorks Quattro; Table 6; read-out: IC50 (μM) Nav1.3
[4] = target: hNav1.5 (Homo sapiens, UniProt Q14524); conditions: IonWorks Quattro; Table 6; read-out: IC50 (μM) Nav1.5
hNav1.5, sequence (Q14524 whole entry): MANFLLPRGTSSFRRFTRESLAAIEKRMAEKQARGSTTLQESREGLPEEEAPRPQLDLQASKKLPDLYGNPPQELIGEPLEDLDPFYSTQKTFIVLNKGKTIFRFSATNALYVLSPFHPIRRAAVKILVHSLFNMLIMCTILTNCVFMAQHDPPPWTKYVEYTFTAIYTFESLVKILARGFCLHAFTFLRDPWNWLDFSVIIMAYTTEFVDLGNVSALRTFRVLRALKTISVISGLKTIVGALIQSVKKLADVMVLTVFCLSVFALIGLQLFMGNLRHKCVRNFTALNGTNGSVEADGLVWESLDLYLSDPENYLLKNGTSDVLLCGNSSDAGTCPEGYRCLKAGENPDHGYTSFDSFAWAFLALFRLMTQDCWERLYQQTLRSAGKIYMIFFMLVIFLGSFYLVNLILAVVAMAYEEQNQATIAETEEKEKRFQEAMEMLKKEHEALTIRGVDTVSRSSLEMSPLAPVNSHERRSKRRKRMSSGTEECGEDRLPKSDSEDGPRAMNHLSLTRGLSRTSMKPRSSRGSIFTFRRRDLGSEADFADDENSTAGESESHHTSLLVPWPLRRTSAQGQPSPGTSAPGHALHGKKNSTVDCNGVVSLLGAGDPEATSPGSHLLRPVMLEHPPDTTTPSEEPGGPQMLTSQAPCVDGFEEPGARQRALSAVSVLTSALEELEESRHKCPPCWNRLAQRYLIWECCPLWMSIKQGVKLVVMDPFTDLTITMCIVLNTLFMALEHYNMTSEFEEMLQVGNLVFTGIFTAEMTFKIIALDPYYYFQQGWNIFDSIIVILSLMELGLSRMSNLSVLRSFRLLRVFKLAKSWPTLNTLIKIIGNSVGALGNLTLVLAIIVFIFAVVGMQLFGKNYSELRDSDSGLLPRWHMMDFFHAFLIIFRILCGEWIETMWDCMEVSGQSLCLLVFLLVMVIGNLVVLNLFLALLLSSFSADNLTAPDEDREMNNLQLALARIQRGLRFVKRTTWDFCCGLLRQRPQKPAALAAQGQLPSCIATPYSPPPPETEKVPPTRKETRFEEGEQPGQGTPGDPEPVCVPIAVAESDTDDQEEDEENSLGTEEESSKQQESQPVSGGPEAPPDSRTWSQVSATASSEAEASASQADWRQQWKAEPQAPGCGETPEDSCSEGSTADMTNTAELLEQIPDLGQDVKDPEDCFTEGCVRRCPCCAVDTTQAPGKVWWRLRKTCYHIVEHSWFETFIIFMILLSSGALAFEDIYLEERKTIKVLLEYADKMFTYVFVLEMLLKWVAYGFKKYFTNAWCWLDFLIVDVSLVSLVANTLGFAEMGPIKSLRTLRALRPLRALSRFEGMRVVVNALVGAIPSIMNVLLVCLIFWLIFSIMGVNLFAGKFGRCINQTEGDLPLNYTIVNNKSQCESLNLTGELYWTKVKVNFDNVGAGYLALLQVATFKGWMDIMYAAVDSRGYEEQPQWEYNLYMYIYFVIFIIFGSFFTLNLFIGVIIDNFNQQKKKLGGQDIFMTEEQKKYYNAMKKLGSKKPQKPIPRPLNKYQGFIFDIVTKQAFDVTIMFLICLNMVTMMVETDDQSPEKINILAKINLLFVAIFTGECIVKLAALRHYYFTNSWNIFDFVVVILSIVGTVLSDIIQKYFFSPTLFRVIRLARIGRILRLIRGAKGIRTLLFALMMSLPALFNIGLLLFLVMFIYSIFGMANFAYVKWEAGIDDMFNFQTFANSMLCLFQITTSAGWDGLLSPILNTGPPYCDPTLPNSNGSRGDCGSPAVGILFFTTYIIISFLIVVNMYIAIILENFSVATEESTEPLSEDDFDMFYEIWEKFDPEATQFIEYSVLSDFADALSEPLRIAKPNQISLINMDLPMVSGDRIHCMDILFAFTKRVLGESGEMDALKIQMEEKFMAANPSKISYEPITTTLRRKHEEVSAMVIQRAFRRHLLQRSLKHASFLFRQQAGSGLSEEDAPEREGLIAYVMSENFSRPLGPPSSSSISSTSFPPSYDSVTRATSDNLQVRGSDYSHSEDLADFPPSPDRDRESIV

hNav1.3, sequence (Q9NY46 whole entry): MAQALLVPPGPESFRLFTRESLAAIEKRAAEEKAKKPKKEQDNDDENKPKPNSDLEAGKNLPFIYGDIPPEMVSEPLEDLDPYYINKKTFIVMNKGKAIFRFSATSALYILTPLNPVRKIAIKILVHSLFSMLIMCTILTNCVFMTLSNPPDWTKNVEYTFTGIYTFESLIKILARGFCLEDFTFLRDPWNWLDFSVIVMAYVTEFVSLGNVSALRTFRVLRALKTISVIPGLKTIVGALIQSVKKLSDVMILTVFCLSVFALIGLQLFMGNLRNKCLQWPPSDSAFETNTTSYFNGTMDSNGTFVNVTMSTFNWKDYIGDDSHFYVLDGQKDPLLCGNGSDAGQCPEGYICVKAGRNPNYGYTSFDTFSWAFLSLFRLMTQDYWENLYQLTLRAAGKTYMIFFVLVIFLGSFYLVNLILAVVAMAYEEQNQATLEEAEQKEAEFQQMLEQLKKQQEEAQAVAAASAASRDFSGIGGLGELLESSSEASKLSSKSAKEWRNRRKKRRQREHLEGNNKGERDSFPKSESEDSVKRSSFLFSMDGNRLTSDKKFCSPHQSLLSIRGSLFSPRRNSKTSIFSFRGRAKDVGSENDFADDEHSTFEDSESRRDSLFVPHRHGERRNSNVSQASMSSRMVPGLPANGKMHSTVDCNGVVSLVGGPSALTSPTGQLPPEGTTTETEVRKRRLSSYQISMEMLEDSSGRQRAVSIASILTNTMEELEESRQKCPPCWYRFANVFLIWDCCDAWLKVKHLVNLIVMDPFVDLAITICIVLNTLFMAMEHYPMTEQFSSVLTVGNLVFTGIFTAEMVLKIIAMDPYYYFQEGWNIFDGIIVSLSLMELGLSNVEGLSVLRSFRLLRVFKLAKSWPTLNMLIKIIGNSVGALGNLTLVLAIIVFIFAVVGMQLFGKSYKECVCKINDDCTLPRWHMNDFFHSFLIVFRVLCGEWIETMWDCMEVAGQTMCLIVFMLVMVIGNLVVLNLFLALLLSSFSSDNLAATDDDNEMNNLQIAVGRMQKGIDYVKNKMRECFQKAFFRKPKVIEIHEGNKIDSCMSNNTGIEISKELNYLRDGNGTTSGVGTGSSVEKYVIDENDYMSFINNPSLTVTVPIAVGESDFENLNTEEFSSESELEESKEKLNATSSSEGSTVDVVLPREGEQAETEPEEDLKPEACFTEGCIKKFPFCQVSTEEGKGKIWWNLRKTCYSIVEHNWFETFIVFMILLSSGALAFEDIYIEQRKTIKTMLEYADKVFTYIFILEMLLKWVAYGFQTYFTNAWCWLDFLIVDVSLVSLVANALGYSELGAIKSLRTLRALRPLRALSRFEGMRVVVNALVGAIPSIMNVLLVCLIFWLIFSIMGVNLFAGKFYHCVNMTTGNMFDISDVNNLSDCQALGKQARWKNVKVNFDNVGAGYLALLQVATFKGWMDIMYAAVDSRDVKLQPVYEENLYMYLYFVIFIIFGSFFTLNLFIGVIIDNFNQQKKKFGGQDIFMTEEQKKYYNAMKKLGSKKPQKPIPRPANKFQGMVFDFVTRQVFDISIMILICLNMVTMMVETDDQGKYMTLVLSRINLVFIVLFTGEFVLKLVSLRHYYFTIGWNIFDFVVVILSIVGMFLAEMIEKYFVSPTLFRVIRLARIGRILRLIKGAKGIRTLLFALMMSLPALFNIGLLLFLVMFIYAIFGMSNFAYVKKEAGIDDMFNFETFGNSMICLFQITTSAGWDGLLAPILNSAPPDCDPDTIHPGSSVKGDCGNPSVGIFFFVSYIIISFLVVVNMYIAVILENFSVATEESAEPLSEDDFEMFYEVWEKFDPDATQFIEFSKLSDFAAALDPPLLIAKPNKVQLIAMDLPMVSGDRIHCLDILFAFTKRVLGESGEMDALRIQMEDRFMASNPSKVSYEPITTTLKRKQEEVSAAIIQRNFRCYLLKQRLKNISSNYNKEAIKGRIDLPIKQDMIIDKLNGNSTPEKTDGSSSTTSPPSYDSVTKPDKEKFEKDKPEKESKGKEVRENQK

| Compound | IC50 [1] [µM] | Nav1.4/Nav1.7 [1] | IC50 [2] [µM] | IC50 [3] [µM] | IC50 [4] [µM] |
| --- | --- | --- | --- | --- | --- |
| CC[C@H](C)[C@H](NC(=O)[C@@H](NC(=O)[C@H](CCCCN)NC(=O)[C@H](CCCNC(=N)N)NC(=O)[C@@H]1CSSC[C@@H]2NC(=O)[C@H](C)NC(=O)[C@H](CCCNC(=N)N)NC(=O)[C@H](CCCCN)NC(=O)[C@H](CO)NC(=O)[C@H](CC(=O)O)NC(=O)[C@@H]3CSSC[C@H](NC(=O)[C@H](CCCNC(=N)N)NC(=O)[C@H](CC(C)C)NC(=O)CNC(=O)[C@H](CCC(=O)O)NC(=O)[C@H](CSSC[C@H](NC(=O)[C@@H](N)Cc4cccc5ccccc45)C(=O)N[C@@H](CCC(N)=O)C(=O)N[C@@H](CCCCN)C(=O)N[C@@H](Cc4c[nH]c5ccccc45)C(=O)N[C@@H](CCSC)C(=O)N[C@@H](Cc4c[nH]c5ccccc45)C(=O)N[C@@H]([C@@H](C)O)C(=O)N3)NC2=O)C(=O)N[C@@H](CCCCN)C(=O)N[C@@H](CC(C)C)C(=O)N[C@@H](Cc2c[nH]c3ccccc23)C(=O)N1)[C@@H](C)CC)C(N)=O [compound 25] | 0.09 | 10 | 0.008 | 0.07 | 2.3 |
| CC[C@H](C)[C@H](NC(=O)[C@@H](NC(=O)[C@H](CCCCN)NC(=O)[C@H](CCCNC(=N)N)NC(=O)[C@@H]1CSSC[C@@H]2NC(=O)[C@H](C)NC(=O)[C@H](CCCNC(=N)N)NC(=O)[C@H](CCCCN)NC(=O)[C@H](CO)NC(=O)[C@H](CC(=O)O)NC(=O)[C@@H]3CSSC[C@H](NC(=O)[C@H](CCCNC(=N)N)NC(=O)[C@H](CC(C)C)NC(=O)[C@H](C)NC(=O)[C@H](CCC(=O)O)NC(=O)[C@H](CSSC[C@H](NC(=O)[C@@H](N)Cc4ccc(O)cc4)C(=O)N[C@@H](CCC(N)=O)C(=O)N[C@@H](CCCCN)C(=O)N[C@@H](Cc4c[nH]c5ccccc45)C(=O)N[C@@H](CCSC)C(=O)N[C@@H](Cc4c[nH]c5ccccc45)C(=O)N[C@@H]([C@@H](C)O)C(=O)N3)NC2=O)C(=O)N[C@@H](CCCCN)C(=O)N[C@@H](CC(C)C)C(=O)N[C@@H](Cc2c[nH]c3ccccc23)C(=O)N1)[C@@H](C)CC)C(N)=O [compound 15] | 0.26 | 7 | 0.04 | 0.24 | > 5 |
| CC[C@H](C)[C@H](NC(=O)[C@@H](NC(=O)[C@H](CCCCN)NC(=O)[C@H](CCCNC(=N)N)NC(=O)[C@@H]1CSSC[C@@H]2NC(=O)[C@H](C)NC(=O)[C@H](CCCNC(=N)N)NC(=O)[C@H](CCCCN)NC(=O)[C@H](CO)NC(=O)[C@H](CC(=O)O)NC(=O)[C@@H]3CSSC[C@H](NC(=O)[C@H](CCCNC(=N)N)NC(=O)[C@H](CC(C)C)NC(=O)CNC(=O)[C@H](CCC(=O)O)NC(=O)[C@H](CSSC[C@H](NC(=O)[C@@H](N)Cc4ccc(O)cc4)C(=O)N[C@@H](CCC(N)=O)C(=O)N[C@@H](CCCCN)C(=O)N[C@@H](Cc4c[nH]c5ccccc45)C(=O)N[C@@H](CCSC)C(=O)N[C@@H](Cc4c[nH]c5ccccc45)C(=O)N[C@@H]([C@@H](C)O)C(=O)N3)NC2=O)C(=O)N[C@@H](CCCCN)C(=O)N[C@@H](CC(C)C)C(=O)N[C@@H](Cc2cccc3ccccc23)C(=O)N1)[C@@H](C)CC)C(N)=O [compound 43] | 0.33 | 4 | 0.075 | 0.46 | > 5 |
| CC[C@H](C)[C@H](NC(=O)[C@@H](NC(=O)[C@H](CCCCN)NC(=O)[C@H](CCCNC(=N)N)NC(=O)[C@@H]1CSSC[C@@H]2NC(=O)[C@H](C)NC(=O)[C@H](CCCNC(=N)N)NC(=O)[C@H](CCCCN)NC(=O)[C@H](CCCNC(=N)N)NC(=O)[C@H](CC(=O)O)NC(=O)[C@@H]3CSSC[C@H](NC(=O)[C@H](CCCNC(=N)N)NC(=O)[C@H](CC(C)C)NC(=O)CNC(=O)[C@H](CCC(=O)O)NC(=O)[C@H](CSSC[C@H](NC(=O)[C@@H](N)Cc4ccc(O)cc4)C(=O)N[C@@H](CCC(N)=O)C(=O)N[C@@H](CCCCN)C(=O)N[C@@H](Cc4c[nH]c5ccccc45)C(=O)N[C@@H](CCSC)C(=O)N[C@@H](Cc4c[nH]c5ccccc45)C(=O)N[C@@H]([C@@H](C)O)C(=O)N3)NC2=O)C(=O)N[C@@H](CCCCN)C(=O)N[C@@H](CC(C)C)C(=O)N[C@@H](Cc2c[nH]c3ccccc23)C(=O)N1)[C@@H](C)CC)C(N)=O [compound 98] | 0.09 | 12 | 0.007 | 0.03 | 0.86 |
| CC[C@H](C)[C@H](NC(=O)[C@@H](NC(=O)[C@H](CCCCN)NC(=O)[C@H](CCCNC(=N)N)NC(=O)[C@@H]1CSSC[C@@H]2NC(=O)[C@H](C)NC(=O)[C@H](CCCNC(=N)N)NC(=O)[C@H](CCCCN)NC(=O)[C@H](CCCCN)NC(=O)[C@H](CC(=O)O)NC(=O)[C@@H]3CSSC[C@H](NC(=O)[C@H](CCCNC(=N)N)NC(=O)[C@H](CC(C)C)NC(=O)CNC(=O)[C@H](CCC(=O)O)NC(=O)[C@H](CSSC[C@H](NC(=O)[C@@H](N)Cc4ccc(O)cc4)C(=O)N[C@@H](CCC(N)=O)C(=O)N[C@@H](CCCCN)C(=O)N[C@@H](Cc4c[nH]c5ccccc45)C(=O)N[C@@H](CCSC)C(=O)N[C@@H](Cc4c[nH]c5ccccc45)C(=O)N[C@@H]([C@@H](C)O)C(=O)N3)NC2=O)C(=O)N[C@@H](CCCCN)C(=O)N[C@@H](CC(C)C)C(=O)N[C@@H](Cc2c[nH]c3ccccc23)C(=O)N1)[C@@H](C)CC)C(N)=O [compound 78] | 0.11 | 13 | 0.008 | 0.05 | 1.1 |
| CC[C@H](C)[C@H](NC(=O)[C@@H](NC(=O)[C@H](CCCCN)NC(=O)[C@H](CCCNC(=N)N)NC(=O)[C@@H]1CSSC[C@@H]2NC(=O)[C@H](CCCNC(=N)N)NC(=O)[C@H](CCCNC(=N)N)NC(=O)[C@H](CCCCN)NC(=O)[C@H](CO)NC(=O)[C@H](CC(=O)O)NC(=O)[C@@H]3CSSC[C@H](NC(=O)[C@H](CCCNC(=N)N)NC(=O)[C@H](CC(C)C)NC(=O)CNC(=O)[C@H](CCC(=O)O)NC(=O)[C@H](CSSC[C@H](NC(=O)[C@@H](N)Cc4ccc(O)cc4)C(=O)N[C@@H](CCC(N)=O)C(=O)N[C@@H](CCCCN)C(=O)N[C@@H](Cc4c[nH]c5ccccc45)C(=O)N[C@@H](CCSC)C(=O)N[C@@H](Cc4c[nH]c5ccccc45)C(=O)N[C@@H]([C@@H](C)O)C(=O)N3)NC2=O)C(=O)N[C@@H](CCCCN)C(=O)N[C@@H](CC(C)C)C(=O)N[C@@H](Cc2c[nH]c3ccccc23)C(=O)N1)[C@@H](C)CC)C(N)=O [compound 100] | 0.08 | 11 | 0.008 | 0.04 | 1.4 |
| CC[C@H](C)[C@H](NC(=O)[C@H](CCCCN)NC(=O)[C@H](CCCCN)NC(=O)[C@H](CCCNC(=N)N)NC(=O)[C@@H]1CSSC[C@@H]2NC(=O)[C@H](C)NC(=O)[C@H](CCCNC(=N)N)NC(=O)[C@H](CCCCN)NC(=O)[C@H](CO)NC(=O)[C@H](CC(=O)O)NC(=O)[C@@H]3CSSC[C@H](NC(=O)[C@H](CCCNC(=N)N)NC(=O)[C@H](CC(C)C)NC(=O)CNC(=O)[C@H](CCC(=O)O)NC(=O)[C@H](CSSC[C@H](NC(=O)[C@@H](N)Cc4ccc(O)cc4)C(=O)N[C@@H](CCC(N)=O)C(=O)N[C@@H](CCCCN)C(=O)N[C@@H](Cc4c[nH]c5ccccc45)C(=O)N[C@@H](CCSC)C(=O)N[C@@H](Cc4c[nH]c5ccccc45)C(=O)N[C@@H]([C@@H](C)O)C(=O)N3)NC2=O)C(=O)N[C@@H](CCCCN)C(=O)N[C@@H](CC(C)C)C(=O)N[C@@H](Cc2c[nH]c3ccccc23)C(=O)N1)C(N)=O [compound 88] | 0.11 | 8 | 0.014 | 0.05 | 1.5 |
| CC[C@H](C)[C@H](NC(=O)[C@@H](NC(=O)[C@H](CCCCN)NC(=O)[C@H](CCCNC(=N)N)NC(=O)[C@@H]1CSSC[C@@H]2NC(=O)[C@H](C)NC(=O)[C@H](CCCNC(=N)N)NC(=O)[C@H](CCCCN)NC(=O)[C@H](C)NC(=O)[C@H](CC(=O)O)NC(=O)[C@@H]3CSSC[C@H](NC(=O)[C@H](CCCNC(=N)N)NC(=O)[C@H](CC(C)C)NC(=O)CNC(=O)[C@H](CCC(=O)O)NC(=O)[C@H](CSSC[C@H](NC(=O)[C@@H](N)Cc4ccc(O)cc4)C(=O)N[C@@H](CCC(N)=O)C(=O)N[C@@H](CCCCN)C(=O)N[C@@H](Cc4c[nH]c5ccccc45)C(=O)N[C@@H](CCSC)C(=O)N[C@@H](Cc4c[nH]c5ccccc45)C(=O)N[C@@H]([C@@H](C)O)C(=O)N3)NC2=O)C(=O)N[C@@H](CCCCN)C(=O)N[C@@H](CC(C)C)C(=O)N[C@@H](Cc2c[nH]c3ccccc23)C(=O)N1)[C@@H](C)CC)C(N)=O [compound 11] | 0.16 | 13 | 0.012 | 0.14 | 3.6 |
| CC[C@H](C)[C@H](NC(=O)[C@@H](NC(=O)[C@H](CCCCN)NC(=O)[C@H](CCCNC(=N)N)NC(=O)[C@@H]1CSSC[C@@H]2NC(=O)[C@H](C)NC(=O)[C@H](CCCNC(=N)N)NC(=O)[C@H](CCCCN)NC(=O)[C@H](CO)NC(=O)[C@H](CC(=O)O)NC(=O)[C@@H]3CSSC[C@H](NC(=O)[C@H](CCCNC(=N)N)NC(=O)[C@H](CC(C)C)NC(=O)CNC(=O)[C@H](CCC(=O)O)NC(=O)[C@H](CSSC[C@H](NC(=O)[C@@H](N)Cc4ccc(O)cc4)C(=O)N[C@@H](CCC(N)=O)C(=O)N[C@@H](CCCCN)C(=O)N[C@@H](Cc4c[nH]c5ccccc45)C(=O)N[C@@H](CCSC)C(=O)N[C@@H](Cc4c[nH]c5ccccc45)C(=O)N[C@@H]([C@@H](C)O)C(=O)N3)NC2=O)C(=O)N[C@@H](CCCCN)C(=O)N[C@@H](C)C(=O)N[C@@H](Cc2c[nH]c3ccccc23)C(=O)N1)[C@@H](C)CC)C(N)=O [compound 19] | 0.34 | 1 | 0.3 | 0.44 | > 5 |
